Data on one compound can be found in EP3860599B1, “(+)-ALPHA-DIHYDROTETRABENAZINE DOSAGE REGIMEN FOR TREATING MOVEMENT DISORDERS” (Adeptio Pharmaceuticals Limited, priority 2018, dated 2020).

What all share (type): in vivo
Assay [1] deals with T1, VMAT2 (Homo sapiens, UniProt Q05940).
T1 construct: from tissue
Briefly: % VMAT2 blocking in caudate and putamen by PET scan 6-7 hours after oral dosing, Example 1B. Particulars: for receptor occupancy at 7.5 mg: po, 7.5 mg oral, PET scan 6-7 hours after administration. An excerpt:
Complete blocking of VMAT2 is considered undesirable as this can lead to unwanted side effects, such as Parkinsonism. […] The levels of VMAT2 blocking can be determined by competitive binding studies using Positron Emission Tomography (PET). By co-administering a radioactive ligand with the compound of interest at various concentrations, the proportion of binding sites occupied can be determined (see for example, Matthews et al., "Positron emission tomography molecular imaging for drug development", Br. J. Clin. Pharmacol., 73:2, 175-186).
Volunteers 1 and 2 were the same as volunteers 1 and 2 in Example 1A described above. […] Blood sample were taken from all volunteers at 2, 4, 6 and 7 hours after drug administration. In addition, in all volunteers PET scans were initiated at 6 hours after drug administration and these were stopped at 7 hours after drug administration.

Assay [2] deals with amphetamine-induced rats. Briefly: Open field locomotor activity test in amphetamine-induced rats (Example 2, Studies 1, 2 and 4). The method, then:
(§1) All animal experiments were carried out according to the National Institute of Health (NIH) guidelines for the care and use of laboratory animals, and approved by the National Animal Experiment Board, Finland. Male CD (Charles River Laboratories, Germany) at weight range of 200-250 g (165-200 g upon arrival) were used for the experiments. Animals were housed at a standard temperature (22 ± 1°C) and in a light-controlled environment (lights on from 7 am to 8 pm) with ad libitum access to food and water.
(§2) Locomotor activity of the rats was tested in open field arena. The open field test was performed during the rat light cycle and under a normal lighting evenly distributed to the test chambers. The paths of the rats were recorded by activity monitor (Med. Associates Inc.).
(§3) Dosing the vehicle, vehicle-amphetamine, (+)-α-DHTBZ or risperidone was done prior to LMA test. The rats were placed in the centre of the arena, and the path was recorded for 60 minutes.
Animals were grouped as follows: • Group 1: 10 rats treated with Vehicle (t= 0 min) and Vehicle (t= 30 min) • Group 2: 10 rats treated with Vehicle (t= 0 min) and Amphetamine (t= 30 min) • Group 3: 10 rats treated with (+)-α-DHTBZ 0.5 mg/kg (t=0 min) and Amphetamine (t= 30 min) • Group 4: 10 rats treated with (+)-α-DHTBZ 1 mg/kg (t=0 min) and Amphetamine (t= 30 min) • Group 5: 10 rats treated with (+)-α-DHTBZ 1.5 mg/kg (t=0 min) and Amphetamine (t= 30 min) • Group 6: 10 rats treated with (+)-α-DHTBZ 2 mg/kg (t=0 min) and Amphetamine (t= 30 min) • Group 7: 10 rats treated with risperidone 1 mg/kg (t=0 min) and Amphetamine (t= 30 min)
Animals were grouped as follows: • Group 1: 10 rats treated with Vehicle (t= 0 min) and Vehicle (t= 30 min) • Group 2: 10 rats treated with Vehicle (t= 0 min) and Amphetamine (t= 30 min) • Group 3: 10 rats treated with (+)-α-DHTBZ 0.1 mg/kg (t=0 min) and Amphetamine (t=30 min) • Group 4: 10 rats treated with (+)-α-DHTBZ 0.25 mg/kg (t=0 min) and Amphetamine (t=30 min) • Group 5: 10 rats treated with risperidone 1 mg/kg (t=0 min) and Amphetamine (t= 30 min)
Animals were grouped as follows: • Group 1: 10 rats treated with Vehicle (t= 0 min) and Vehicle (t= 30 min) • Group 2: 10 rats treated with Vehicle (t= 0 min) and Amphetamine (t= 30 min) • Group 3: 10 rats treated with (+)-α-DHTBZ 1 mg/kg (t=0 min) and Amphetamine (t=30 min) • Group 4: 10 rats treated with (+)-α-DHTBZ 1.5 mg/kg (t=0 min) and Amphetamine (t=30 min) • Group 5: 10 rats treated with Valbenazine 1 mg/kg (t=0 min) and Amphetamine (t=30 min) • Group 6: 10 rats treated with Valbenazine 1.5 mg/kg (t=0 min) and Amphetamine (t=30 min) • Group 7: 10 rats treated with risperidone 1 mg/kg (t=0 min) and Amphetamine (t= 30 min)

Assay [3] relates to non-amphetamine induced rats. Briefly: Open field locomotor activity test in rats without amphetamine induction (Example 2, Study 3). Particulars: 2.5 mg/kg or 5 mg/kg. The procedure:
as §1, §2, §3
Animals were grouped as follows: • Group 1: 10 rats treated with Vehicle • Group 2: 10 rats treated with (+)-α-DHTBZ 2.5 mg/kg • Group 3: 10 rats treated with (+)-α-DHTBZ 5 mg/kg • Group 4: 10 rats treated with risperidone 1 mg/kg

Where [4] appears, read: Study 1 conclusions, all the tested doses (0.5, 1, 1.5 and 2 mg/kg).

Like-named read-outs stand apart in the source and are kept apart here.

T1 sequence (Q05940 whole entry): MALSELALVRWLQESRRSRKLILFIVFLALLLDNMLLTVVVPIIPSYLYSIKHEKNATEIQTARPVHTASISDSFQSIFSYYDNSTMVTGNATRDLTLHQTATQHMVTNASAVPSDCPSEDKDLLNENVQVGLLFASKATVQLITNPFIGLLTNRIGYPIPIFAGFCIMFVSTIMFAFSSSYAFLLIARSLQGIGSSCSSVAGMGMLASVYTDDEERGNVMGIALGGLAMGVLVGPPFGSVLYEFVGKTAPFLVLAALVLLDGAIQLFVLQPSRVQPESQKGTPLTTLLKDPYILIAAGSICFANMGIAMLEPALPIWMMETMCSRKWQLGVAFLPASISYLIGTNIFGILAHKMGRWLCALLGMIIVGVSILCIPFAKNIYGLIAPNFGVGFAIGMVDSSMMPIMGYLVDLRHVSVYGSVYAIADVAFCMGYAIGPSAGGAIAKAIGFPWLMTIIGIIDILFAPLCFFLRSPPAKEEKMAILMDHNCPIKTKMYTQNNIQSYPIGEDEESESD

Take `COc1cc2c(cc1OC)[C@H]1C[C@@H](O)[C@H](CC(C)C)CN1CC2` [(+)-α-dihydrotetrabenazine, (R,R,R)-3-isobutyl-9,10-dimethyloxy-1,3,4,5,7,11b-hexahydro-2H-pyrido[2,1-a]isoquinolin-2-ol]: the “% VMAT2 blocking” value in assay [1] (after 6 hours following administration of 7.5mg) is recorded as “greater than 30%”. Further, in assay [1] (each subject, 7.5 mg), the “difference between the %VMAT2 blocking levels in the caudate and putamen regions of the striatum” value was “No significant difference”. For the same compound, the receptor occupancy at 7.5 mg in assay [1] (Example 1B subject 1 (112 kg), read-out: %VMAT2 Occupancy Caudate) is 38%; in assay [1] (Example 1B subject 1 (112 kg), read-out: %VMAT2 Occupancy Putamen), 39%; in assay [1] (Example 1B subject 2 (76 kg), read-out: %VMAT2 Occupancy Caudate), 65%; in assay [1] (Example 1B subject 2 (76 kg), read-out: %VMAT2 Occupancy Putamen) it was 63%; in assay [1] (Example 1B subject 3 (76 kg), read-out: %VMAT2 Occupancy Caudate), 41%; in assay [1] (Example 1B subject 3 (76 kg), read-out: %VMAT2 Occupancy Putamen) it was 42%. Moreover, the receptor occupancy at 7.5 mg in assay [1] (Example 1B subject 4 (95 kg), read-out: %VMAT2 Occupancy Caudate) turned out to be 34%; in assay [1] (Example 1B subject 4 (95 kg), read-out: %VMAT2 Occupancy Putamen), 32%; in assay [1] (Example 1B subject 5 (99 kg), read-out: %VMAT2 Occupancy Caudate), 36%; in assay [1] (Example 1B subject 5 (99 kg), read-out: %VMAT2 Occupancy Putamen), 36%; in assay [1] (Example 1B subject 6 (107 kg), read-out: %VMAT2 Occupancy Caudate), 44%; in assay [1] (Example 1B subject 6 (107 kg), read-out: %VMAT2 Occupancy Putamen) it was 49%. Besides, the “reduction of level of blocking after 6-7 hours compared to the %VMAT2 blocking after 1-2 hours following administration” value in assay [1] (subject 1, 7.5 mg) worked out at 30%; in assay [1] (subject 2, 7.5 mg) it was 11%. In addition, the “locomotor activity when compared to the vehicle-amphetamine group” value in assay [2] (setting [4]) is recorded as “lower locomotor activity”; in assay [2] (Study 2 conclusions, 0.25 mg/kg), “lower locomotor activity”. Moreover, the “stereotypic behaviour when compared to the vehicle-amphetamine group” value is “reduced stereotypic behaviour” in assay [2] (setting [4]); “reduced stereotypic behaviour” in assay [2] (Study 2 conclusions, both the tested doses (0.1 mg/kg and 0.25 mg/kg)). Further, the “locomotor activity when compared to the vehicle-amphetamine group and the corresponding dose of Valbenazine” value in assay [2] (Study 4 conclusions, 1 mg/kg and 1.5 mg/kg) is “lower locomotor activity”. Further, in assay [2] (Study 4 conclusions, both the tested doses (1 mg/kg and 1.5 mg/kg)), the “stereotypic behaviour when compared to the vehicle-amphetamine group and the corresponding dose of Valbenazine” value is listed as “reduced stereotypic behaviour”. In assay [3], the “stereotypic behaviour versus rats treated with the vehicle” value was “comparable”. In assay [3], the “total movement versus rats treated with the vehicle” value is “comparable”.
